In ChEMBL document CHEMBL6182866, “Design, synthesis, molecular docking and ADME of novel phenylalanine derivatives as mushroom tyrosinase inhibitors” (Bioorg Med Chem Lett, 2025):
Active and inactive are the calls of the source. The rule behind the calls is not given here.

Assays:
[1] = molecular target: Mushroom tyrosinase (Agaricus bisporus, UniProt O42713+Q00024+C7FF04+C7FF05); assay: Inhibition of mushroom tyrosinase using L-DOPA as substrate assessed as reduction in diphenolase activity; format: protein assay
[2] = molecular target: T1, Tyrosinase (Homo sapiens) (UniProt P14679); assay: Inhibition of human TYR using L-DOPA as substrate assessed as reduction in diphenolase activity by absorbance based assay
T1 sequence (whole entry): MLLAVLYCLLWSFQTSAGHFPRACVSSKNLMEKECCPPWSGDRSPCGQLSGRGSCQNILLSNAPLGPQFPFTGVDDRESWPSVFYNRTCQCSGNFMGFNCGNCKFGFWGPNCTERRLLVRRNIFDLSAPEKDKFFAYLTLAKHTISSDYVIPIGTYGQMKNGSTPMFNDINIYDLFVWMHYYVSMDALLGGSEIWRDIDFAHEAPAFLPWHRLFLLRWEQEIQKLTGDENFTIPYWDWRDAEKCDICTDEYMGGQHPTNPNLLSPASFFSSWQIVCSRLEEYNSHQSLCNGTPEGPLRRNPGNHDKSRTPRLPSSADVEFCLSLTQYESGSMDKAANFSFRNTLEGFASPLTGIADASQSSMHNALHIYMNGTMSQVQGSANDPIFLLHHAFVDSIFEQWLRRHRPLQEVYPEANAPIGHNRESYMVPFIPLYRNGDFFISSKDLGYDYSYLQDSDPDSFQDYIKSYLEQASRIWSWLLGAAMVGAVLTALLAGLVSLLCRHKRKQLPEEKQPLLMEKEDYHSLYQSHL

[3] = molecular target: T2, Mushroom tyrosinase (Agaricus bisporus) (UniProt O42713+Q00024+C7FF04+C7FF05); assay: Reversible inhibition of mushroom tyrosinase using L-DOPA as substrate up to 10 uM; format: protein assay
[4] = molecular target: T2, Mushroom tyrosinase (Agaricus bisporus); assay: Competitive inhibition of mushroom tyrosinase using L-DOPA as substrate assessed as increase in Km with constant Vmax up to 10 uM by Lineweaver-Burk plot analysis; format: protein assay

IC50 [1] [µM]	Structure (SMILES)	other results
> 100	O=C(O)C(Cc1ccccc1)NCc1ccc(Cl)c([N+](=O)[O-])c1 (configuration not stated)	
8.33	O=C(OCc1ccc(F)cc1)C(Cc1ccccc1)NCc1ccc(Cl)cc1Cl (configuration not stated)	
6.78	O=C(OCc1ccc([N+](=O)[O-])cc1)C(Cc1ccccc1)NCc1ccc(Cl)cc1Cl (configuration not stated)	
> 100	O=C(O)C(Cc1ccccc1)NCc1ccccc1Cl (configuration not stated)	
10.35	O=C(OCc1cc(=O)c(O)co1)C(Cc1ccccc1)NCc1ccc(Cl)cc1Cl (configuration not stated)	inhibition [3]: Active; inhibition [4]: Active
11.65	O=C(OCc1cc(=O)c(O)co1)C(Cc1ccccc1)NCc1ccc(Cl)c([N+](=O)[O-])c1 (configuration not stated)	
6.11	O=C(OCc1ccc(F)cc1)C(Cc1ccccc1)NCc1ccc(Cl)c([N+](=O)[O-])c1 (configuration not stated)	
42.4	O=C(O)C(Cc1ccccc1)NCc1ccc([N+](=O)[O-])cc1 (configuration not stated)	
18.2	O=C(OCc1ccc(F)cc1)C(Cc1ccccc1)NCc1ccccc1Cl (configuration not stated)	
> 100	O=C(O)C(Cc1ccccc1)NCc1ccc(Cl)cc1Cl (configuration not stated)	
31.05	O=C(O)C(Cc1ccccc1)NCc1ccc(Br)cc1 (configuration not stated)	
16.99	O=C(OCc1ccc([N+](=O)[O-])cc1)C(Cc1ccccc1)NCc1ccccc1Cl (configuration not stated)	
20.64	O=C(OCc1cc(=O)c(O)co1)C(Cc1ccccc1)NCc1ccccc1Cl (configuration not stated)	

Further lines, the compound ahead of its results:

Structure (SMILES)	IC50 [1] [µM]	other results
O=C(OCc1ccc([N+](=O)[O-])cc1)C(Cc1ccccc1)NCc1ccc(Br)cc1 (configuration not stated)	11.95	
O=c1cc(CCl)occ1O	33.05	
CC(C)C(=O)Nc1nc(-c2ccc(O)cc2O)cs1	48.12	
O=C(OCc1ccc(F)cc1)C(Cc1ccccc1)NCc1ccc(Br)cc1 (configuration not stated)	16.07	
O=C(OCc1ccc([N+](=O)[O-])cc1)C(Cc1ccccc1)NCc1ccc(Cl)c([N+](=O)[O-])c1 (configuration not stated)	4.86	inhibition [2]: Dose-dependent-effect; inhibition [3]: Active; inhibition [4]: Active
O=C(OCc1cc(=O)c(O)co1)C(Cc1ccccc1)NCc1ccc(Br)cc1 (configuration not stated)	15.26	
O=C(OCc1ccc(F)cc1)C(Cc1ccccc1)NCc1ccc([N+](=O)[O-])cc1 (configuration not stated)	11.77	
O=C(OCc1cc(=O)c(O)co1)C(Cc1ccccc1)NCc1ccc([N+](=O)[O-])cc1 (configuration not stated)	13.43	
O=C(OCc1ccc([N+](=O)[O-])cc1)C(Cc1ccccc1)NCc1ccc([N+](=O)[O-])cc1 (configuration not stated)	10.58	
